From paper PMC3608401 (FEBS letters, 2013) come the findings set out here.

One may read the Km as the concentration of substrate that gives half-maximal velocity. As a reminder, the kcat is the maximal rate divided by the concentration of active sites.

For data set [1], the target named is T1, protein from Thermoanaerobacter italicus (clade 1) (Thermoanaerobacter thermocopriae, UniProt D3T426).
T1 sequence (D3T426 1-453): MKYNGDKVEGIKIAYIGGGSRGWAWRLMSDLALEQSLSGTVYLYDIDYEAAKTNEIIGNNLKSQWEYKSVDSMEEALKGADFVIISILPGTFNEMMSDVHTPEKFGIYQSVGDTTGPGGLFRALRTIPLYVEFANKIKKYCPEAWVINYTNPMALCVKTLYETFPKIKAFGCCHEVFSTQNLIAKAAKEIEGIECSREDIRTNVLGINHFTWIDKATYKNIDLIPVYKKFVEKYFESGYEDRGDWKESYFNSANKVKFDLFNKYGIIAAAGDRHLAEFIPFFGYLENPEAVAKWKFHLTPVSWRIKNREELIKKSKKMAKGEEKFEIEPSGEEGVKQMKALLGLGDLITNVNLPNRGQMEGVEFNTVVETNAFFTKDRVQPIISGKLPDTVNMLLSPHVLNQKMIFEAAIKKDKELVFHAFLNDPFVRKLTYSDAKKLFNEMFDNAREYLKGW
The data set is described as follows: colorimetric assay of α-galacturonidase activity. It counts as biochemical. The following applies: cofactors NAD+, Mn2+, DTT as for GH4 enzymes.

For data set [2], the target named is T2, Clostridium phytofermentans Cphy3396 (clade 3) (Lachnoclostridium phytofermentans, UniProt A9KTB9).
T2 sequence (A9KTB9 1-466): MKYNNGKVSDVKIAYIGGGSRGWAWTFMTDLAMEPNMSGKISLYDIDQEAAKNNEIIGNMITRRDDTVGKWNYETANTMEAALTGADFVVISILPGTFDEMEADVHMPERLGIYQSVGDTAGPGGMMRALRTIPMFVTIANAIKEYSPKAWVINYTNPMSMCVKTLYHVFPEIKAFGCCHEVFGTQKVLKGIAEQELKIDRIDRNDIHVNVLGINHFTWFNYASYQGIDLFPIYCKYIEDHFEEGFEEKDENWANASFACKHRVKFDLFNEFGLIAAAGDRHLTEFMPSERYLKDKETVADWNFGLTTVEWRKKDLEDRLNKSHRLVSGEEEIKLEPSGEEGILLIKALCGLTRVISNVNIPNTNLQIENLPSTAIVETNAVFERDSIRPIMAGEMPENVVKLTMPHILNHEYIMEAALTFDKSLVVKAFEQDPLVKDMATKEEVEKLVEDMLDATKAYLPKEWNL
The data set can be described thus: colorimetric assay of α-galacturonidase activity. The data set is classed as biochemical. The note with it: cofactors NAD+, Mn2+, DTT as for GH4 enzymes.

Substrate in data set [3]: O=C(O)[C@H]1O[C@H](Oc2ccc([N+](=O)[O-])cc2)[C@H](O)[C@@H](O)[C@H]1O
The data set can be described thus: discontinuous colorimetric assay, p-nitrophenol release. The data set is classed as biochemical, Bacillus subtilis. The following applies: 25 mM Tris-HCl pH 7.5, 0.1 mM NAD+, 1 mM MnCl2, 5 mM DTT, ~35-38 °C.

For the molecule `O=C(O)[C@H]1O[C@H](Oc2ccc([N+](=O)[O-])cc2)[C@H](O)[C@@H](O)[C@H]1O` [pNPαGalUA], the “colorimetric assay of α-galacturonidase activity” value in data set [1] and in data set [2] was “pNPαGalUA served as substrate in all assays of protein activity” in each case.

B1: LplD (LplDhis6) (Bacillus subtilis subsp. subtilis str. 168) (protein)
chain: MFHISTLDQIKIAYIGGGSQGWARSLMSDLSIDERMSGTVALYDLDFEAAQKNEVIGNHSGNGRWRYEAVSTLKKALSAADIVIISILPGSLDDMEVDVHLPERCGIYQSVGDTVGPGGIIRGLRAVPIFAEIARAIRDYAPESWVINYTNPMSVCTRVLYKVFPGIKAIGCCHEVFGTQKLLAEMVTERLGIEVPRREDIRVNVLGINHFTWITKASYRHIDLLPIFREFSAHYGESGYELEGECWRDSVFCSAHRVAFDLFETYGAIPAAGDRHLAEFLPGPYLKQPEVWKFHLTPISFRKQDRAEKRQETERLIVQQRGVAEKASGEEGVNIIAALLGLGELVTNVNMPNQGQVLNLPIQAIVETNAFITRNRVQPILSGALPKGVEMLAARHISNQEAVADAGLTKDTGLAFQAFLNDPLVQIDRSDAEQLFNDMLQCIMQS
In the case of B1, in data set [3], the Km is 0.62 ± 0.11 µM and the kcat was determined as 3.6 s⁻¹.
